US20090137601A1, “L-Phenylalanine Derivatives” (ASTRAZENECA AB, priority 2005, published 2009)

The compounds below were run against T1, α5β1 integrin (Homo sapiens, UniProt P05556+P08648) (assay: In vitro cell adhesion assay: α5β1 integrin mediated adhesion of K562 cells to fibronectin fragment Fn9-10). Settings: human K562 erythroleukaemia cells; Fn9-10 coated plates; 0.2 mM MnCl; 45 minutes at 37° C.; crystal violet absorbance at 590 nm.
T1 construct: α5β1 integrin mediated adhesion of K562 cells; host or cells: K562 human erythroleukaemia cells (integrin, endogenous); E. coli (Fn9-10 ligand, made in house)
T1 sequence (P08648 42-894 limits assumed): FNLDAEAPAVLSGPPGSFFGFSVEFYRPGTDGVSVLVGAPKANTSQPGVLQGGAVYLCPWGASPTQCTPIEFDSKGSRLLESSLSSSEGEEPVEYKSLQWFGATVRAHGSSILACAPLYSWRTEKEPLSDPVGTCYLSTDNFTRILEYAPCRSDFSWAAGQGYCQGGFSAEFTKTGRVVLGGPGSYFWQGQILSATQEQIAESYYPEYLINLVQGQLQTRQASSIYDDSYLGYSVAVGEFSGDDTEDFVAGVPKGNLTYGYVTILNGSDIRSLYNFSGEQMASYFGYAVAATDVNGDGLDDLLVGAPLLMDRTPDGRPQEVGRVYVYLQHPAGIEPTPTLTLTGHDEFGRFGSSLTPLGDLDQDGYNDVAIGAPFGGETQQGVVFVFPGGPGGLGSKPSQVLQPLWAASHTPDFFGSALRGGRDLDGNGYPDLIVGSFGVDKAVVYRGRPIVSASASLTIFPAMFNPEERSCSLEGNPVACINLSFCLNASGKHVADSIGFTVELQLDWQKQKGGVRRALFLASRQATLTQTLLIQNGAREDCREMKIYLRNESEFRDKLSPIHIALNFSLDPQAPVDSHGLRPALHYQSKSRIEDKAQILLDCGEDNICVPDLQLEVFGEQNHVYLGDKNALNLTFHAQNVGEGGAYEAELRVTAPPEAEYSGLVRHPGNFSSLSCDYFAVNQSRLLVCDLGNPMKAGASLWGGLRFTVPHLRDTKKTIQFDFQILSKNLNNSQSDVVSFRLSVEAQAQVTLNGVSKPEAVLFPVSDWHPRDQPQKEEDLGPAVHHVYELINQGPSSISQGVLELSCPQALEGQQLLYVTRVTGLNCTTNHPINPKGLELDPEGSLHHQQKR
T1 sequence (P08648 895-1049 partner limits assumed): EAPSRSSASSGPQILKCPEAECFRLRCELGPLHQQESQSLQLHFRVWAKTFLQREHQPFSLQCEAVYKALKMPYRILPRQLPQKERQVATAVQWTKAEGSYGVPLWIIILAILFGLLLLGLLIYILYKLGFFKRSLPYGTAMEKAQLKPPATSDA
T1 sequence (P05556 21-798): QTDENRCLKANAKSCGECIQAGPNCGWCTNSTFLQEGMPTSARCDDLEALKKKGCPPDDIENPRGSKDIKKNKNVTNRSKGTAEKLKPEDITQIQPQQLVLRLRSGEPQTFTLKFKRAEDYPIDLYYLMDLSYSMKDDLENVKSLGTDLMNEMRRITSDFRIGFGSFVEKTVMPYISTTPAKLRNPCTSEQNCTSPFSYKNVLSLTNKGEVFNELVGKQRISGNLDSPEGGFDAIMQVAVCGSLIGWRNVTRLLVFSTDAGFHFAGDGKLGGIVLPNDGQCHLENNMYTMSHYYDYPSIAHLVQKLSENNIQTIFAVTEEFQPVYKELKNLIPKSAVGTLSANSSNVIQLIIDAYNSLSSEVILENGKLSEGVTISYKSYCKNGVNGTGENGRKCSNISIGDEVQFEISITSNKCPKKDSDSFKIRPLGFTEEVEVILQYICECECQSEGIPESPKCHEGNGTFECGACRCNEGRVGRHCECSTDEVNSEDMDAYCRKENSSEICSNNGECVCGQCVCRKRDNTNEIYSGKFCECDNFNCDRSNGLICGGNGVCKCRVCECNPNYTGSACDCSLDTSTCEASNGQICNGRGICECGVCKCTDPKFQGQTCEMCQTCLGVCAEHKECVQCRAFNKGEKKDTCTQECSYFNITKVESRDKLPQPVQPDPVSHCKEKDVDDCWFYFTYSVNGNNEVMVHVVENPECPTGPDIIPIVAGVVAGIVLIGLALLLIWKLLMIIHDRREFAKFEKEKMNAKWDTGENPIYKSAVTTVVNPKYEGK
Type: cell-based
Text: The assay determined the ability of compounds to inhibit the α5β1 integrin mediated adhesion of K562 cells to the ligand, a fragment of human fibronectin. The human K562 erythroleukaemia cell line (LGC Promochem, Teddington, Middlesex, UK, Catalogue No. CCL-243) was routinely maintained in RPMI 1640 medium (Sigma-Aldrich Company Ltd, Gillingham, Dorset SP8 4XT, Catalogue No. R0883) containing 10% heat-inactivated foetal calf serum (PAA lab GmbH, Pasching, Austria Catalogue No. PAA-A15-043) and 1% glutamax-1 (Invitrogen Ltd. Paisley, UK Catalogue No. 35050-038) at 37° C. with 5% CO2 at densities between 1×10^5 and 1×10^6 cells/ml.
A DNA fragment encoding the domains 9-10 (amino-acids 1325-1509) of human fibronectin (Swiss-Prot Accession No. P02751) was isolated from cDNA libraries using standard molecular biology and PCR cloning techniques. The cDNA fragment was sub-cloned into a pT7#3.3 expression vector containing a GST-epitope tag (developed at AstraZeneca; Bagnall et al., Protein Expression and Purification, 2003, 27: 1-11), and the fragment termed Fn9-10. Following expression in E. coli, the expressed protein was purified using the GST-tag using standard purification techniques.
For adhesion assay, a 96-well flat bottomed plate (Greiner Bio one ltd., Gloucester GL10 3SX Catalogue No. 655101) was coated overnight at 4° C. with 100 μl of 20 μg/ml Fn9-10 ligand in Dulbecco's PBS (Gibco #14190-94). The plate was then washed twice with 200 μl of PBS and blocked with 100 μl of 3% BSA (SigmaA7888) in PBS for 1 hour at 37° C. The plates were then washed again 3 times with 200 μl of PBS and left empty. […]
After fixation, the ethanol was flicked off to waste and 100 μl of 0.1% Crystal violet stain was added to each well, and incubated at ambient temperature for 15 minutes. […] Finally, 100 μl of deionised water was added to each well and the absorbance was determined at 590 nm on a spectrophotometer. The minimum value was subtracted from all values, and the absorbance signal was plotted against compound concentration to generate IC50 data.
O=C(N[C@@H](Cc1ccc(C2CCN(Cc3ccccc3F)CC2)cc1)C(=O)O)c1c(Cl)cccc1Cl [N-(2,6-dichlorobenzoyl)-4-[1-(2-fluorobenzyl)piperidin-4-yl]-L-phenylalanine] was tested, and the IC50 was no less than 30 µM.
Cc1cccc(Cl)c1C(=O)N[C@@H](Cc1ccc(C2=CCN(Cc3ccc(F)cc3)CC2)cc1)C(=O)O [N-(2-chloro-6-methylbenzoyl)-4-[1-(4-fluorobenzyl)-1,2,3,6-tetrahydropyridin-4-yl]-L-phenylalanine] showed an IC50 of no less than 30 µM.
With COc1cccc(CN2CCC(c3ccc(C[C@H](NC(=O)c4c(Cl)cccc4Cl)C(=O)O)cc3)CC2)c1 [N-(2,6-dichlorobenzoyl)-4-[1-(3-methoxybenzyl)piperidin-4-yl]-L-phenylalanine] the IC50 was no less than 30 µM.
